{"source": "patent US9067896B2", "about": "“Crystalline forms of 3-(2,6-dichloro-3,5-dimethoxy-phenyl)-1-{6-[4-(4-ethyl-piperazin-1-yl) -phenylamino]-pyrimidin-4-yl}-1-methyl-urea and salts thereof” (Novartis AG, priority 2009, dated 2015)", "key": {"[1]": {"experiment": "Pharmacokinetics / bioavailability in rats", "format": "in vivo", "conditions": "for concentration at 24 h / concentration at 8 h: read-out: Clast [μmol/L ± SE]; for half-life: read-out: t1/2 terminal elimination (converted); for Cmax: read-out: Cmax [μmol/L ± SE]", "method": "The higher water solubility of the phosphate salt compared to the free base (and other acid salts, as described above) led to the development of a solution formulation (or composition), which would not be feasible with the free base due to solubility restrictions. For this experiment, the phosphate salt was prepared as follows. In a glass vial, 10.7 mg of the free base was dissolved in 4 ml THF. Phosphoric acid (1.76 ml) in acetone (0.01M) was added. The mixture was warmed to 50° C. for about 2 minutes. The vial was left open for partial evaporation at room temperature. Overnight, a suspension was formed, which was filtered yielding about 5.5 mg of an off-white powder. The bioavailabilities, in rats, of the active agents (the free base and its phosphate salt), formulated variously, are tabulated below (Table 10)."}, "Solution stability": {"experiment": "Solution stability", "format": "physicochemical", "conditions": "1 week at 50° C.", "method": "The solution stability of the free base was tested in buffers ranging from pH 1 to pH 9 for 1 week at 50° C. At pH 5 and higher, the free base was stable, and after accounting for minor initial impurities, degradation was less than 2%. At pH 3, degradation was about 4% and at pH 1, degradation was about 15%. The stability was also tested in water and several organic solvents (1 week at 50° C.).\nWithout being bound by mechanism, the stability difference between the free base and phosphate salt may be due to the higher aqueous solubility of the phosphate salt compared to the free base, as well as the tendency of the phosphate salt to cause the pH of water to decrease, which may increase the rate of degradation."}, "[2]": {"conditions": "rat, in vivo, iv, 5 mg/kg, rats, i.v. [5 mg/kg]"}, "[3]": {"conditions": "rat, in vivo, po, 8.57 mg/kg, rats, free base p.o., suspension (water containing 0.5% HPMC) [8.57 mg/kg]"}, "[4]": {"conditions": "rat, in vivo, po, 10 mg/kg, rats, colloidal solution (water, ethanol and cremophor EL) [10 mg/kg]"}, "[5]": {"conditions": "rat, in vivo, po, 10 mg/kg, rats, p.o., colloidal solution (water, ethanol and cremophor EL) [10 mg/kg]"}, "[6]": {"conditions": "rats, free base p.o., suspension (water containing 0.5% HPMC) [8.57 mg/kg]"}, "[7]": {"conditions": "rats, p.o., colloidal solution (water, ethanol and cremophor EL) [10 mg/kg]"}, "[8]": {"conditions": "rat, in vivo, po, 8.57 mg/kg, rats, phosphate salt p.o., supension (water containing 0.5% HPMC) [8.57 mg/kg]"}, "[9]": {"conditions": "rat, in vivo, po, 10 mg/kg, pH 4.7, rats, p.o., solution (PEG300/acetate buffer pH 4.7 1:1) [10 mg/kg]"}, "[10]": {"conditions": "rats, p.o., solution (PEG300/acetate buffer pH 4.7 1:1) [10 mg/kg]"}, "[11]": {"conditions": "rats, phosphate salt p.o., supension (water containing 0.5% HPMC) [8.57 mg/kg]"}}, "note": "Counter-ions that a name gives are not always drawn. Like-named read-outs stand apart in the source and are kept apart here.", "data": [{"smiles": "CCN1CCN(c2ccc(Nc3cc(N(C)C(=O)Nc4c(Cl)c(OC)cc(OC)c4Cl)ncn3)cc2)CC1", "note": "[Free Base, 3-(2,6-Dichloro-3,5-dimethoxy-phenyl)-1-{6-[4-(4-ethyl-piperazin-1-yl)-phenylamino]-pyrimidin-4-yl}-1-methyl-urea]", "values": [{"measurement": "AUC(0-inf)", "setting": "[1]; [2]", "result": 2.47, "unit": "µM·h"}, {"measurement": "concentration at 5 min", "setting": "[1]; rat, in vivo, iv, 5 mg/kg, rats, i.v. [5 mg/kg], read-out: C5 min [μmol/L ± SE]", "result": "0.972 ± 0.404", "unit": "µmol/L"}, {"measurement": "concentration at 24 h", "setting": "[1]; [2]", "result": "0.003 ± 0.003", "unit": "µmol/L"}, {"measurement": "half-life", "setting": "[1]; [2]", "result": 4.5, "unit": "h"}, {"measurement": "clearance", "setting": "[1]; rat, in vivo, iv, rats, i.v. [5 mg/kg]", "result": 60, "unit": "mL/min/kg"}, {"measurement": "Vd", "setting": "[1]; rat, in vivo, iv, rats, i.v. [5 mg/kg], read-out: Vss", "result": 9.6, "unit": "L/kg"}, {"measurement": "AUC(0-inf)", "setting": "[1]; [3]", "result": 1.55, "unit": "µM·h"}, {"measurement": "Tmax", "setting": "[1]; [3]", "result": 2, "unit": "h"}, {"measurement": "concentration at 8 h", "setting": "[1]; [3]", "result": "0.077 ± 0.038", "unit": "µmol/L"}, {"measurement": "Cmax", "setting": "[1]; [3]", "result": "0.202 ± 0.021", "unit": "µmol/L"}, {"measurement": "half-life", "setting": "[1]; [3]", "result": 4.3, "unit": "h"}, {"measurement": "AUC(0-inf)", "setting": "[1]; [4]", "result": 1.44, "unit": "µM·h"}, {"measurement": "Tmax", "setting": "[1]; [4]", "result": 3, "unit": "h"}, {"measurement": "concentration at 24 h", "setting": "[1]; [5]", "result": "0.01 ± 0.005", "unit": "µmol/L"}, {"measurement": "Cmax", "setting": "[1]; [5]", "result": "0.154 ± 0.026", "unit": "µmol/L"}, {"measurement": "half-life", "setting": "[1]; [5]", "result": 5.2, "unit": "h"}, {"measurement": "AUC (0-∞) dose ^A [(h · μmol/L)/(mg/kg)]", "setting": "[1]; [6]", "result": "0.18 (h · μmol/L)/(mg/kg)"}, {"measurement": "BAV f [%]", "setting": "[1]; [6]", "result": "37 ± 11", "unit": "%"}, {"measurement": "tlast", "setting": "[1]; [6]", "result": 8, "unit": "h"}, {"measurement": "AUC (0-∞) dose ^A [(h · μmol/L)/(mg/kg)]", "setting": "[1]; rats, i.v. [5 mg/kg]", "result": "0.49 (h · μmol/L)/(mg/kg)"}, {"measurement": "tlast", "setting": "[1]; rats, i.v. [5 mg/kg]", "result": 24, "unit": "h"}, {"measurement": "AUC (0-∞) dose ^A [(h · μmol/L)/(mg/kg)]", "setting": "[1]; [7]", "result": "0.14 (h · μmol/L)/(mg/kg)"}, {"measurement": "BAV f [%]", "setting": "[1]; [7]", "result": 29, "unit": "%"}, {"measurement": "tlast", "setting": "[1]; [7]", "result": 24, "unit": "h"}, {"measurement": "degradation in solution", "setting": "Solution stability; 1:1 acetonitrile/water, listed as free base", "result": "about 8%"}, {"measurement": "degradation in solution", "setting": "Solution stability; buffer pH 1", "result": "about 15%"}, {"measurement": "degradation in solution", "setting": "Solution stability; buffer pH 3", "result": "about 4%"}, {"measurement": "degradation in solution", "setting": "Solution stability; buffers pH 5 and higher", "result": "less than 2%"}, {"measurement": "degradation in solution", "setting": "Solution stability; isopropanol", "result": "stable"}, {"measurement": "degradation in solution", "setting": "Solution stability; water, listed as free base", "result": "stable"}]}, {"smiles": "CCN1CCN(c2ccc(Nc3cc(N(C)C(=O)Nc4c(Cl)c(OC)cc(OC)c4Cl)ncn3)cc2)CC1", "note": "[Phosphate salt (form A)]", "values": [{"measurement": "bioavailability relative to the free base", "setting": "[1]; oral administration", "result": "~2", "unit": "fold"}, {"measurement": "AUC(0-inf)", "setting": "[1]; [8]", "result": 1.23, "unit": "µM·h"}, {"measurement": "Tmax", "setting": "[1]; [8]", "result": 3, "unit": "h"}, {"measurement": "concentration at 8 h", "setting": "[1]; [8]", "result": "0.062 ± 0.006", "unit": "µmol/L"}, {"measurement": "Cmax", "setting": "[1]; [8]", "result": "0.15 ± 0.031", "unit": "µmol/L"}, {"measurement": "half-life", "setting": "[1]; [8]", "result": 4.4, "unit": "h"}, {"measurement": "AUC(0-inf)", "setting": "[1]; [9]", "result": 2.52, "unit": "µM·h"}, {"measurement": "Tmax", "setting": "[1]; [9]", "result": 4, "unit": "h"}, {"measurement": "concentration at 8 h", "setting": "[1]; [9]", "result": "0.148 ± 0.018", "unit": "µmol/L"}, {"measurement": "Cmax", "setting": "[1]; [9]", "result": "0.263 ± 0.083", "unit": "µmol/L"}, {"measurement": "AUC (0-∞) dose ^A [(h · μmol/L)/(mg/kg)]", "setting": "[1]; [10]", "result": "0.25 (h · μmol/L)/(mg/kg)"}, {"measurement": "BAV f [%]", "setting": "[1]; [10]", "result": 51, "unit": "%"}, {"measurement": "t1/2 terminal elimination", "setting": "[1]; [10]", "result": 4.8, "unit": "h"}, {"measurement": "tlast", "setting": "[1]; [10]", "result": 8, "unit": "h"}, {"measurement": "AUC (0-∞) dose ^A [(h · μmol/L)/(mg/kg)]", "setting": "[1]; [11]", "result": "0.14 (h · μmol/L)/(mg/kg)"}, {"measurement": "BAV f [%]", "setting": "[1]; [11]", "result": "29 ± 3", "unit": "%"}, {"measurement": "tlast", "setting": "[1]; [11]", "result": 8, "unit": "h"}, {"measurement": "degradation in solution", "setting": "Solution stability; 1:1 acetonitrile/water, listed as phosphate salt", "result": "~70", "unit": "%"}, {"measurement": "degradation in solution", "setting": "Solution stability; acetonitrile, form A", "result": "stable"}, {"measurement": "degradation in solution", "setting": "Solution stability; methanol, form A", "result": "about 8%"}, {"measurement": "degradation in solution", "setting": "Solution stability; water, listed as phosphate salt", "result": "about 45%"}]}]}
